From ChEMBL document CHEMBL1201861, “Genomics of Drug Sensitity in Cancer screening data, Wellcome Trust Sanger Institute”
pIC50: −log10 of the molar value.

Key:
Assay in all cases: cells
Settings in all cases: Homo sapiens
[1] = system: GR-ST; type: functional, cell-based
Description: SANGER: Inhibition of human GR-ST cell growth in a cell viability assay.

[2] = system: JVM-2; type: functional, cell-based;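 also: growth inhibition of JVM-2 cells determined by a cell viability assay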
Description: SANGER: Inhibition of human JVM-2 cell growth in a cell viability assay.

[3] = system: D283 Med; type: functional, cell-based
Description: SANGER: Inhibition of human D-283MED cell growth in a cell viability assay.

[4] = system: LB1047-RCC; type: functional, cell-based;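 also: inhibition of cell growth, determined with a cell viability assay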
Description: SANGER: Inhibition of human LB1047-RCC cell growth in a cell viability assay.

[5] = system: NEC8; type: functional, cell-based;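 also: growth inhibition of human NEC8 cells, read out by a cell viability assay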
Description: SANGER: Inhibition of human NEC8 cell growth in a cell viability assay.

[6] = system: NB5; type: functional, cell-based;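 also: growth inhibition of NB5 cells, read out as cell viability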
Description: SANGER: Inhibition of human NB5 cell growth in a cell viability assay.

[7] = system: EC-GI-10; type: functional, cell-based
Description: SANGER: Inhibition of human EC-GI-10 cell growth in a cell viability assay.

[8] = system: K5; type: functional, cell-based
Description: SANGER: Inhibition of human K5 cell growth in a cell viability assay.

[9] = system: KURAMOCHI; type: functional, cell-based;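 also: growth inhibition of KURAMOCHI cells, read out with a cell viability assay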
Description: SANGER: Inhibition of human KURAMOCHI cell growth in a cell viability assay.

[10] = system: CGTH-W-1; type: functional, cell-based;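 also: growth inhibition of human CGTH-W-1 cells measured by cell viability assay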
Description: SANGER: Inhibition of human CGTH-W-1 cell growth in a cell viability assay.

[11] = system: P30-OHK; type: functional, cell-based;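 also: growth inhibition of the P30-OHK cell line, read out with a cell viability assay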
Description: SANGER: Inhibition of human P30-OHK cell growth in a cell viability assay.

[12] = system: MLMA; type: functional, cell-based;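 also: growth inhibition of MLMA cells (human), determined through a cell viability readout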
Description: SANGER: Inhibition of human MLMA cell growth in a cell viability assay.

[13] = system: SNU-C2B; type: functional, cell-based;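 also: cell viability readout used to measure compound-driven suppression of SNU-C2B cell proliferation, IC50 marking half-maximal growth inhibition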
Description: SANGER: Inhibition of human SNU-C2B cell growth in a cell viability assay.

[14] = system: D-263MG; type: functional, cell-based
Description: SANGER: Inhibition of human D-263MG cell growth in a cell viability assay.

[15] = system: KS-1; type: functional, cell-based;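 also: growth inhibition of KS-1 cells, read out with a cell viability assay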
Description: SANGER: Inhibition of human KS-1 cell growth in a cell viability assay.

[16] = system: Lu-65; type: functional, cell-based;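 also: growth inhibition of Lu-65 cancer cells, read out by a cell viability assay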
Description: SANGER: Inhibition of human LU-65 cell growth in a cell viability assay.

[17] = system: SK-N-DZ; type: functional, cell-based;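 also: growth inhibition of the cancer cell line, read out through a viability assay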
Description: SANGER: Inhibition of human SK-N-DZ cell growth in a cell viability assay.

[18] = system: GT3TKB; type: functional, cell-based;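 also: growth inhibition of the cell line, read out with a cell viability assay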
Description: SANGER: Inhibition of human GT3TKB cell growth in a cell viability assay.

[19] = system: IST-MES1; type: functional, cell-based;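 also: growth inhibition of IST-MES1 cells, measured with a cell viability assay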
Description: SANGER: Inhibition of human IST-MES1 cell growth in a cell viability assay.

[20] = system: NTERA-2-cl-D1; type: functional, cell-based;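 also: inhibition of cell growth, measured with a cell viability assay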
Description: SANGER: Inhibition of human NTERA-S-cl-D1 cell growth in a cell viability assay.

[21] = system: C2BBe1; type: functional, cell-based;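 also: growth inhibition of C2BBe1 cells, read out through a viability assay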
Description: SANGER: Inhibition of human C2BBe1 cell growth in a cell viability assay.

[22] = system: EW-11; type: functional, cell-based;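 also: growth inhibition of human EW-11 cells, measured with a cell viability assay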
Description: SANGER: Inhibition of human EW-11 cell growth in a cell viability assay.

[23] = system: HCE-4; type: functional, cell-based;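 also: cell viability assay measuring inhibition of growth in the human HCE-4 cell line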
Description: SANGER: Inhibition of human HCE-4 cell growth in a cell viability assay.

[24] = system: NCI-H23; type: functional, cell-based;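 also: cell viability assay measuring growth inhibition of NCI-H23 cells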
Description: SANGER: Inhibition of human NCI-H23 cell growth in a cell viability assay.

[25] = system: DSH1; type: functional, cell-based;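 also: growth inhibition of human DSH1 cells, measured with a cell viability readout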
Description: SANGER: Inhibition of human DSH1 cell growth in a cell viability assay.

[26] = system: U-266; type: functional, cell-based
Description: SANGER: Inhibition of human U-266 cell growth in a cell viability assay.

[27] = system: COR-L88; type: functional, cell-based;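 also: growth inhibition of COR-L88 cells, read out with a cell viability assay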
Description: SANGER: Inhibition of human COR-L88 cell growth in a cell viability assay.

[28] = system: NMC-G1; type: functional, cell-based;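 also: growth inhibition of the NMC-G1 cell line, measured with a cell viability read-out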
Description: SANGER: Inhibition of human NMC-G1 cell growth in a cell viability assay.

[29] = system: KNS-42; type: functional, cell-based;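 also: growth inhibition of KNS-42 cells, read out with a cell viability assay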
Description: SANGER: Inhibition of human KNS-42 cell growth in a cell viability assay.

[30] = system: KE-37; type: functional, cell-based;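 also: growth inhibition of KE-37 cells, read out with a cell viability assay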
Description: SANGER: Inhibition of human KE-37 cell growth in a cell viability assay.

[31] = system: BB65-RCC; type: functional, cell-based;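 also: growth inhibition of the cell line, measured with a cell viability assay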
Description: SANGER: Inhibition of human BB65-RCC cell growth in a cell viability assay.

[32] = system: KNS-81-FD; type: functional, cell-based;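 also: growth inhibition of KNS-81-FD cells, read out with a cell viability assay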
Description: SANGER: Inhibition of human KNS-81-FD cell growth in a cell viability assay.

[33] = system: KALS-1; type: functional, cell-based;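 also: growth inhibition of KALS-1 cells, determined with a cell viability assay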
Description: SANGER: Inhibition of human KALS-1 cell growth in a cell viability assay.

[34] = system: HCE-T; type: functional, cell-based;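 also: cell viability assay read-out, reporting inhibition of HCE-T cell growth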
Description: SANGER: Inhibition of human HCE-T cell growth in a cell viability assay.

[35] = system: ALL-PO; type: functional, cell-based;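 also: growth inhibition of ALL-PO cells, read out by a cell viability assay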
Description: SANGER: Inhibition of human ALL-PO cell growth in a cell viability assay.

[36] = system: MOLT-4; type: functional, cell-based;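 also: growth inhibition of MOLT-4 cells, determined with a cell viability readout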
Description: SANGER: Inhibition of human MOLT-4 cell growth in a cell viability assay.

[37] = system: LS-411N; type: functional, cell-based
[38] = system: HOP-62; type: functional, cell-based;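 also: cell growth inhibition determined with a viability assay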
Description: SANGER: Inhibition of human HOP-62 cell growth in a cell viability assay.

[39] = system: GCIY; type: functional, cell-based;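 also: growth inhibition of the human GCIY cell line, read out by a cell viability assay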
Description: SANGER: Inhibition of human GCIY cell growth in a cell viability assay.

[40] = system: ES8; type: functional, cell-based;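 also: growth inhibition of human ES8 cells, read out with a cell viability assay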
Description: SANGER: Inhibition of human ES8 cell growth in a cell viability assay.

[41] = system: TK-10; type: functional, cell-based;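 also: growth inhibition of TK-10 cells, read out in a cell viability assay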
Description: SANGER: Inhibition of human TK10 cell growth in a cell viability assay.

[42] = system: SH-4; type: functional, cell-based;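 also: growth inhibition of SH-4 cells, read out with a cell viability assay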
Description: SANGER: Inhibition of human SH-4 cell growth in a cell viability assay.

[43] = system: SCC-15; type: functional, cell-based;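 also: growth inhibition of SCC-15 cells, read out with a cell viability assay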
Description: SANGER: Inhibition of human SCC-15 cell growth in a cell viability assay.

[44] = system: COLO-668; type: functional, cell-based
Description: SANGER: Inhibition of human COLO-668 cell growth in a cell viability assay.

[45] = system: LS-123; type: functional, cell-based
Description: SANGER: Inhibition of human LS-123 cell growth in a cell viability assay.

[46] = system: EW-24; type: functional, cell-based;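 also: human EW-24 cancer cell line, growth inhibition read out via a cell viability assay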
Description: SANGER: Inhibition of human EW-24 cell growth in a cell viability assay.

[47] = system: NCI-H1648; type: functional, cell-based;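 also: cell viability assay measuring inhibition of NCI-H1648 cell growth, from the Sanger screening data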
Description: SANGER: Inhibition of human NCI-H1648 cell growth in a cell viability assay.

[48] = system: SHP77; type: functional, cell-based, SHP-77;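 also: growth inhibition of human SHP-77 cells measured by a cell viability assay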
Description: SANGER: Inhibition of human SHP-77 cell growth in a cell viability assay.

[49] = system: 8-MG-BA; type: functional, cell-based;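 also: growth inhibition of 8-MG-BA cells, read out with a cell viability assay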
Description: SANGER: Inhibition of human 8-MG-BA cell growth in a cell viability assay.

[50] = system: BT-474; type: functional, cell-based
Description: SANGER: Inhibition of human BT-474 cell growth in a cell viability assay.

[51] = system: GOTO; type: functional, cell-based;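 also: growth inhibition of GOTO cells, read out by a cell viability assay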
Description: SANGER: Inhibition of human GOTO cell growth in a cell viability assay.

[52] = system: OMC-1; type: functional, cell-based;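 also: growth inhibition of the OMC-1 cell line, measured by a cell viability assay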
Description: SANGER: Inhibition of human OMC-1 cell growth in a cell viability assay.

[53] = system: RH-1; type: functional, cell-based;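 also: growth inhibition of human RH-1 cells, read out with a cell viability assay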
Description: SANGER: Inhibition of human RH-1 cell growth in a cell viability assay.

[54] = system: HEL; type: functional, cell-based;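 also: growth inhibition of HEL cells, read out with a cell viability assay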
Description: SANGER: Inhibition of human HEL cell growth in a cell viability assay.

[55] = system: NCI-H720; type: functional, cell-based;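 also: growth inhibition of human NCI-H720 cells determined by a cell viability assay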
Description: SANGER: Inhibition of human NCI-H720 cell growth in a cell viability assay.

[56] = system: LNCaP-Clone-FGC; type: functional, cell-based
Description: SANGER: Inhibition of human LNCaP-Clone-FGC cell growth in a cell viability assay.

[57] = system: NCI-H1650; type: functional, cell-based;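 also: growth inhibition of human NCI-H1650 cells measured by a cell viability assay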
Description: SANGER: Inhibition of human NCI-H1650 cell growth in a cell viability assay.

[58] = system: ES3; type: functional, cell-based;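 also: growth inhibition of ES3 cells, read out with a cell viability assay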
Description: SANGER: Inhibition of human ES3 cell growth in a cell viability assay.

[59] = system: MSTO-211H; type: functional, cell-based
Description: SANGER: Inhibition of human MSTO-211H cell growth in a cell viability assay.

[60] = system: SBC-1; type: functional, cell-based;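 also: cell viability assay measuring growth inhibition of the SBC-1 cell line, IC50 being the concentration that halves growth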
Description: SANGER: Inhibition of human SBC-1 cell growth in a cell viability assay.

[61] = system: KY821; type: functional, cell-based
Description: SANGER: Inhibition of human KY821 cell growth in a cell viability assay.

[62] = system: EM-2; type: functional, cell-based
Description: SANGER: Inhibition of human EM-2 cell growth in a cell viability assay.

[63] = system: CCRF-CEM; type: functional, cell-based
Description: SANGER: Inhibition of human CCRF-CEM cell growth in a cell viability assay.

[64] = system: J-RT3-T3-5; type: functional, cell-based
Description: SANGER: Inhibition of human J-RT3-T3-5 cell growth in a cell viability assay.

[65] = system: LB373-MEL-D; type: functional, cell-based
Description: SANGER: Inhibition of human LB373-MEL-D cell growth in a cell viability assay.

[66] = system: KU812 cell line; type: functional, cell-based
Description: SANGER: Inhibition of human KU812 cell growth in a cell viability assay.

With Cc1nc(Nc2ncc(C(=O)Nc3c(C)cccc3Cl)s2)cc(N2CCN(CCO)CC2)n1 [DASATINIB] the pIC50 [1] was under 5.89, the pIC50 [2] was under 5.89 and the pIC50 [3] was under 5.89. For the same molecule, the pIC50 [4] was 8.00, the pIC50 [5] was under 5.89 and the pIC50 [6] was under 5.89. It also gave a pIC50 [7] of under 5.89, a pIC50 [8] of 6.78 and a pIC50 [9] of 7.46. It also gave a pIC50 [10] of 7.45, a pIC50 [11] of under 5.89 and a pIC50 [12] of 6.85. It also gave a pIC50 [13] of under 5.89, a pIC50 [14] of 6.44 and a pIC50 [15] of 7.56. For the same molecule, the pIC50 [16] was under 5.89, the pIC50 [17] was under 5.89 and the pIC50 [18] was under 5.89. The pIC50 [19] was 7.07, the pIC50 [20] was 6.91 and the pIC50 [21] was 7.08. For the same molecule, the pIC50 [22] was under 5.89, the pIC50 [23] was 6.58 and the pIC50 [24] was under 5.89. It also gave a pIC50 [25] of 6.62, a pIC50 [26] of under 5.89 and a pIC50 [27] of under 5.89. It also gave a pIC50 [28] of 6.94, a pIC50 [29] of 5.91 and a pIC50 [30] of under 5.89. For the same molecule, the pIC50 [31] was 7.08, the pIC50 [32] was under 5.89 and the pIC50 [33] was 7.02. For the same molecule, the pIC50 [34] was under 5.89, the pIC50 [35] was under 5.89 and the pIC50 [36] was under 5.89. It also gave a pIC50 [37] of under 5.89, a pIC50 [38] of 7.74 and a pIC50 [39] of 7.02. For the same molecule, the pIC50 [40] was under 5.89, the pIC50 [41] was 7.93 and the pIC50 [42] was 6.73. For the same molecule, the pIC50 [43] was under 5.89, the pIC50 [44] was under 5.89 and the pIC50 [45] was 6.85. It also gave a pIC50 [46] of 6.11, a pIC50 [47] of 7.70 and a pIC50 [48] of under 5.89. For the same molecule, the pIC50 [49] was 6.81, the pIC50 [50] was under 5.89 and the pIC50 [51] was under 5.89. The pIC50 [52] was under 5.89, the pIC50 [53] was under 5.89 and the pIC50 [54] was under 5.89. It also gave a pIC50 [55] of under 5.89, a pIC50 [56] of under 5.89 and a pIC50 [57] of under 5.89. It also gave a pIC50 [58] of under 5.89, a pIC50 [59] of under 5.89 and a pIC50 [60] of under 5.89. It also gave a pIC50 [61] of under 5.89, a pIC50 [62] of over 8.30 and a pIC50 [63] of under 5.89. The pIC50 [64] was under 5.89, the pIC50 [65] was 6.08 and the pIC50 [66] was 6.93.

CC(O)(CS(=O)(=O)c1ccc(F)cc1)C(=O)Nc1ccc(C#N)c(C(F)(F)F)c1 (stereo not drawn) [BICALUTAMIDE] gave a pIC50 [1] of under 5.99, a pIC50 [2] of under 5.99 and a pIC50 [3] of under 5.99. The pIC50 [4] was under 5.99, the pIC50 [5] was under 5.99 and the pIC50 [6] was under 5.99. For the same molecule, the pIC50 [7] was under 5.99, the pIC50 [8] was under 5.99 and the pIC50 [9] was under 5.99. For the same molecule, the pIC50 [10] was under 5.99, the pIC50 [11] was under 5.99 and the pIC50 [12] was under 5.99. It also gave a pIC50 [13] of under 5.99, a pIC50 [14] of under 5.99 and a pIC50 [15] of under 5.99. The pIC50 [16] was under 5.99, the pIC50 [17] was under 5.99 and the pIC50 [18] was under 5.99. The pIC50 [19] was under 5.99, the pIC50 [20] was under 5.99 and the pIC50 [21] was under 5.99. For the same molecule, the pIC50 [22] was under 5.99, the pIC50 [23] was under 5.99 and the pIC50 [24] was under 5.99. It also gave a pIC50 [25] of under 5.99, a pIC50 [26] of under 5.99 and a pIC50 [27] of under 5.99. The pIC50 [28] was under 5.99, the pIC50 [29] was under 5.99 and the pIC50 [30] was under 5.99. For the same molecule, the pIC50 [31] was under 5.99, the pIC50 [32] was under 5.99 and the pIC50 [33] was under 5.99. For the same molecule, the pIC50 [34] was under 5.99, the pIC50 [35] was under 5.99 and the pIC50 [36] was under 5.99. For the same molecule, the pIC50 [37] was under 5.99, the pIC50 [38] was under 5.99 and the pIC50 [39] was under 5.99. It also gave a pIC50 [40] of under 5.99, a pIC50 [41] of under 5.99 and a pIC50 [42] of under 5.99. It also gave a pIC50 [43] of under 5.99, a pIC50 [44] of under 5.99 and a pIC50 [45] of under 5.99. For the same molecule, the pIC50 [46] was under 5.99, the pIC50 [47] was under 5.99 and the pIC50 [48] was under 5.99. The pIC50 [49] was under 5.99, the pIC50 [50] was under 5.99 and the pIC50 [51] was under 5.99. The pIC50 [52] was under 5.99, the pIC50 [53] was under 5.99 and the pIC50 [54] was under 5.99. The pIC50 [55] was under 5.99, the pIC50 [56] was under 5.99 and the pIC50 [57] was under 5.99. For the same molecule, the pIC50 [58] was under 5.99, the pIC50 [59] was under 5.99 and the pIC50 [60] was under 5.99. The pIC50 [61] was under 5.99, the pIC50 [62] was under 5.99 and the pIC50 [63] was under 5.99. The pIC50 [64] was under 5.99, the pIC50 [65] was under 5.99 and the pIC50 [66] was under 5.99.

COc1cc(C)c(Sc2cnc(NC(=O)c3ccc(CNC(C)C(C)(C)C)cc3)s2)cc1C(=O)N1CCN(C(C)=O)CC1 (stereo not drawn) showed a pIC50 [1] of under 4.99, a pIC50 [2] of under 4.99 and a pIC50 [3] of under 4.99. For the same molecule, the pIC50 [4] was under 4.99, the pIC50 [5] was under 4.99 and the pIC50 [6] was under 4.99. For the same molecule, the pIC50 [7] was under 4.99, the pIC50 [8] was under 4.99 and the pIC50 [9] was under 4.99. The pIC50 [10] was under 4.99, the pIC50 [11] was under 4.99 and the pIC50 [12] was under 4.99. It also gave a pIC50 [13] of 5.33, a pIC50 [14] of under 4.99 and a pIC50 [15] of 5.92. The pIC50 [16] was under 4.99, the pIC50 [17] was under 4.99 and the pIC50 [18] was under 4.99. It also gave a pIC50 [19] of under 4.99, a pIC50 [20] of 5.06 and a pIC50 [21] of under 4.99. It also gave a pIC50 [22] of under 4.99, a pIC50 [23] of under 4.99 and a pIC50 [24] of under 4.99. The pIC50 [25] was under 4.99, the pIC50 [26] was under 4.99 and the pIC50 [27] was under 4.99. The pIC50 [28] was 5.15, the pIC50 [29] was under 4.99 and the pIC50 [30] was under 4.99. The pIC50 [31] was under 4.99, the pIC50 [32] was under 4.99 and the pIC50 [33] was under 4.99. The pIC50 [34] was under 4.99, the pIC50 [35] was under 4.99 and the pIC50 [36] was under 4.99. It also gave a pIC50 [37] of 5.36, a pIC50 [38] of under 4.99 and a pIC50 [39] of under 4.99. The pIC50 [40] was under 4.99, the pIC50 [41] was under 4.99 and the pIC50 [42] was 5.60. It also gave a pIC50 [43] of under 4.99, a pIC50 [44] of under 4.99 and a pIC50 [45] of under 4.99. The pIC50 [46] was under 4.99, the pIC50 [47] was under 4.99 and the pIC50 [48] was under 4.99. The pIC50 [49] was under 4.99, the pIC50 [50] was under 4.99 and the pIC50 [51] was under 4.99. The pIC50 [52] was under 4.99, the pIC50 [53] was under 4.99 and the pIC50 [54] was under 4.99. For the same molecule, the pIC50 [55] was under 4.99, the pIC50 [56] was under 4.99 and the pIC50 [57] was under 4.99. The pIC50 [58] was 5.05, the pIC50 [59] was under 4.99 and the pIC50 [60] was under 4.99. The pIC50 [61] was under 4.99, the pIC50 [62] was under 4.99 and the pIC50 [63] was under 4.99. For the same molecule, the pIC50 [64] was under 4.99, the pIC50 [65] was under 4.99 and the pIC50 [66] was 5.05.
